Assay results from patent publication US6710060B2, “4-hydroxypiperidine derivatives having antiarrhythmic activity” (Mochida Pharmaceutical Co., Ltd., priority 1999, dated 2004).
Counter-ions that a name gives are not always drawn.

Columns and labels:
[1] = test system: Electrocardiogram in Rats; assay: Effect on electrocardiogram in rats; type: in vivo; details: 5 mg/kg intravenous, anesthetized rat, two minutes after administration
Description: [Effect on Electrocardiogram in Rats]
After anesthetizing with 1.5 g/kg (s.c.) of urethane, a rat was fixed on a warm plate at its supination. Polyethylene tubes for administering a test compound and for measuring the blood pressure were inserted into and fixed to the jugular vein and femoral artery, respectively. The blood pressure of the artery was measured using a pressure transducer. An electrode was attached to the animal, electrocardiograms were led by the standard lead II. The heart rate was measured by using a heart rate counter. The test compound was given by intravenous injection when the blood pressure and heat rate had been stabilized after the operation. […] Each parameter on the electrocardiogram was processed using an analysis software running on the personal computer to calculate the rate of change as compared with that before administration.

[2] = test system: isolated cardiac muscle cells; assay: Suppression activity of veratrine-induced contracture of isolated cardiac muscle; type: cell-based; details: Cardiac muscle cell, 5 min; rat isolated cardiac muscle cells, veratrine 100 gg/mL, 5 minutes after addition, probit analysis; read-out: IC50 (concentration of the test compound when half of the cells were contracted)
Description: [Suppression Activity of Veratrine-Induced Contracture of Isolated Cardiac Muscle]
Rats were anesthetized with 40 mg/kg (i.p.) of pentobarbital sodium and held in supine postion, and heparin was injected through the jugular vein. […] A polyethylene tube filled with Krebs-Ringer-HEPES (KRH) solution (pH 7.4) containing 1 mM CaCl2 was inserted through the aorta in retrograde manner, and the tube was fixed. The heart was extracted simultaneously with perfusion of the KRH solution at a hydraulic pressure of 70 cm water column. After thoroughly flushing the remaining blood by spontaneous contraction of the heart, stroke of the heart was halted by perfusion of the Ca^2+ free KRH solution for 10 minutes. The perfusion solutions described above were used after oxygenation with a mixed gas containing 95% O2 and 5% CO2 and keeping at a temperature of 37° C. Then, a KRH solution containing 25 μM CaCl2, 0.06% collagenase and 0.1% albumin was perfused for 20 minutes at 37° C. until the heart was soften. The ventricles were cut into pieces in the collagenase solution at 37° C., followed by an enzyme treatment for 10 minutes while aerating the solution with the mixed gas of 95% O2/5% CO2. The cells were dispersed by pipetting, and connective tissues were removed from the dispersed cells by filtering with a stainless steel mesh. After halting the enzyme reaction by adding albumin in the filtrate, the supernatant was discarded by centrifugation. The cells were suspended in the KRH solution containing 25 μM CaCl2 and 1% albumin, and the Ca^2+ concentration was increased stepwise by sequentially adding the CaCl2 solution in the suspension to a final concentration of 0.5 mM. A pellet of the cells was obtained by centrifugation after allowing the suspension to stand for 10 minutes. The pellet of the cells was laid on a column (10 cm in height and 15 mm in diameter) filled with the KRH solution containing 1 mM CaCl2 and 2% albumin, and the column was allowed to stand for 5 to 10 minutes. The supernatant was gently removed, and the number of rod-shaped cells in the precipitated cells was counted. The cells were re-suspended in the KRH solution containing 1 mM CaCl2 and 0.1% albumin, and pipetted into each well of a 48 well multi-plate (3548, COSTER) coated with poly-L-lysine so that each well contains 0.5 mL of the cell suspension with 1×10^4 cells/well. The suspension in each well was aerated with a mixed gas of 95% O2/5% CO2 at 37° C. for 1 hour to allow the cells to adhere on the bottom of the well. […] Then, the medium was replaced with a KRH solution containing a test compound, 0.025% lactic acid and 1 mM CaCl2, followed by aerating with a mixed gas containing 95% O2/5% CO2 at 37° C. for 30 minutes. After taking a photograph under a microscope, a KRH solution containing veratrine, 0.025% lactic acid and 1 mM CaCl2 was added to each well so that the final concentration of veratrin becomes 100 gg/mL, followed by taking a photograph of morphological changes of the cells after 5 minutes passed from the addition. A change from the rod-shape cell to a spherical cell was defined as contraction by veratrine. Veratrine in this concentration can contract all the cells. The concentration of the test compound when half of the cells were contracted was defined as IC50 (μmol/L) that can be calculated by a probit analysis.

[3] = test system: Ischemia-Reperfusion Induced Arrythmia Model in Rats; assay: Suppression effect on ischemia-reperfusion induced arrythmia in rats; type: in vivo, rat; details: Table 2-2; 5 mg/kg by gavage; solvent group 57.1
Description: [Suppression Effect on Ischemia-Reperfusion Induced Arrythmia in Rats]
The test compounds were administered to rats starved from a day before by gavage at a dosage of 10 mL/kg under an awaken condition. The rats were anesthetized with 60 mg/kg (i.p.) of sodium pentobarbital after 35 minutes passed from the administration, and were fixed on a warmed sheet in supine position. The body temperature was kept at 37° C. during the experiment, and artificial respiration was started under a condition of 15 mL/Kg and 55 strokes/minutes. […] Then, the left chest was open, and the left major coronary artery at an atrium side was sewed using a needle with a thread in order to ligate the coronary artery. After stabilizing for about 10 minutes (after 60 minutes passed from the administration), the coronary artery was ligated for 5 minutes, and re-perfused for 10 minutes thereafter. The ligation of the coronary artery was conducted by inserting a suture through a snare made of a polyethylene tube and pulling the both ends of the suture, followed by pressing the snare onto the heart. The re-perfusion was conducted by removing the snare. The aortic blood pressure was measured with a pressure transducer. An electrocardiogram was led by a standard lead II. […] After the completion of the experiments, generation of ventricular fibrillation was confirmed for each individual using an analysis software running on the personal computer, and incidence (%) of the ventricular fibrillation was determined for each administration group.

With `CCCCOc1ccc(N(C)CCC2(O)CCN(Cc3ccc4c(c3)OCO4)CC2)cc1` [Example 162, 4-[2-[N-(4-n-butoxyphenyl)-N-methylamino]ethyl]-1-(3,4-methylenedioxyphenylmethyl)piperidin-4-ol dihydrochloride] the “PQ Distance (rate of change)” value [1] was “— (The rate of change at two minutes after administration is 15% or less as compared with that before administration.)” and the “QRS Width (rate of change)” value [1] was “— (The rate of change at two minutes after administration is 15% or less as compared with that before administration.)”.

With `CCCCOc1ccc(N(C)CCC2(O)CCN(CCc3ccc(F)cc3)CC2)cc1` [Example 176, 4-[2-[N-(4-n-butoxyphenyl)-N-methylamino]ethyl]-1-[2-(4-fluorophenyl)ethyl]piperidin-4-ol dihydrochloride] the IC50 [2] was 900 nM, the “PQ Distance (rate of change)” value [1] was “— (The rate of change at two minutes after administration is 15% or less as compared with that before administration.)” and the “QRS Width (rate of change)” value [1] was “— (The rate of change at two minutes after administration is 15% or less as compared with that before administration.)”.

With `CCCCOc1ccc(N(C)CCC2(O)CCN(Cc3ccc(F)cc3)CC2)cc1` [Example 177, 4-[2-[N-(4-n-butoxyphenyl)-N-methylamino]ethyl]-1(4-fluorophenylmethyl)piperidin-4-ol dihydrochloride] the “PQ Distance (rate of change)” value [1] was “— (The rate of change at two minutes after administration is 15% or less as compared with that before administration.)” and the “QRS Width (rate of change)” value [1] was “— (The rate of change at two minutes after administration is 15% or less as compared with that before administration.)”.

`CCCCOc1ccc(N(C)CCC2(O)CCN(CCc3ccc(F)cc3F)CC2)cc1` [Example 183, 4-[2-[N-(4-n-butoxyphenyl)-N-methylamino]ethyl]-1-[2-(2,4-difluorophenyl)ethyl]piperidin-4-ol dihydrochloride] showed an IC50 [2] of 1000 nM.

With `CCCCOc1ccc(N(C)CC(O)C2(O)CCN(CCc3ccc(F)cc3)CC2)cc1` (centres unmarked) [Example 196, 4-[2-[N-(4-n-butoxyphenyl)-N-methylamino]-1-hydroxyethyl]-1-[2-(4-fluorophenyl)ethyl]piperidin-4-ol dihydrochloride] the “PQ Distance (rate of change)” value [1] was “— (The rate of change at two minutes after administration is 15% or less as compared with that before administration.)” and the “QRS Width (rate of change)” value [1] was “— (The rate of change at two minutes after administration is 15% or less as compared with that before administration.)”.

With `CCCCOc1ccc(N(C)CCC2(O)CCN(CC(O)c3ccc(F)cc3)CC2)cc1` (centres unmarked) [Example 198, 4-[2-[N-(4-n-butoxyphenyl)-N-methylamino]ethyl]-1-[2-(4-fluorophenyl)-2-hydroxyethyl]piperidin-4-ol dihydrochloride] the “PQ Distance (rate of change)” value [1] was “— (The rate of change at two minutes after administration is 15% or less as compared with that before administration.)” and the “QRS Width (rate of change)” value [1] was “— (The rate of change at two minutes after administration is 15% or less as compared with that before administration.)”.

In the case of `CCCCOc1ccc(N(C)CCC2(OC)CCN(Cc3ccccc3)CC2)cc1` [Example 201, 1-benzyl-4-methoxy-4-[2-[N-(4-n-butoxyphenyl)-N-methylamino]ethyl]piperidine dihydrochloride], the “PQ Distance (rate of change)” value [1] is reported as “— (The rate of change at two minutes after administration is 15% or less as compared with that before administration.)” and the “QRS Width (rate of change)” value [1] is reported as “— (The rate of change at two minutes after administration is 15% or less as compared with that before administration.)”.

`CCCCOc1ccc(N(C)CC2(O)CCN(Cc3ccccc3)CC2)cc1` [Example 210, 1-benzyl-4-[N-(4-n-butoxyphenyl)-N-methylamino]-methylpiperidin-4-ol monomaleate] showed an IC50 [2] of 900 nM.

`CC(C)Oc1ccc(N(C)CCC2(O)CCN(Cc3ccc(Br)cc3)CC2)cc1` [Example 220, 1-(4-bromophenylmethyl)-4-[2-[N-methyl-N-(4-isopropoxyphenyl)amino]ethyl]piperidin-4-ol dihydrochloride] gave an IC50 [2] of 700 nM.

`CC(C)Oc1ccc(N(C)CCC2(O)CCN(Cc3ccc(C(F)(F)F)cc3)CC2)cc1` [Example 221, 4-[2-[N-methyl-N-(4-isopropoxyphenyl)amino]ethyl]-1-[4-(trifluoromethyl)phenylmethyl]piperidin-4-ol dihydrochloride] was tested, and the IC50 [2] was 300 nM.

In the case of `CC(C)Oc1ccc(N(C)CCC2(O)CCN(Cc3ccc(C#N)cc3)CC2)cc1` [Example 226, 1-(4-cyanophenylmethyl)-4-[2-[N-methyl-N-(4-isopropoxyphenyl)amino]ethyl]piperidin-4-ol dihydrochloride], the “PQ Distance (rate of change)” value [1] is reported as “— (The rate of change at two minutes after administration is 15% or less as compared with that before administration.)” and the “QRS Width (rate of change)” value [1] is reported as “— (The rate of change at two minutes after administration is 15% or less as compared with that before administration.)”.

With `CC(C)Oc1ccc(N(C)CCC2(O)CCN(Cc3ccc(OC(F)(F)F)cc3)CC2)cc1` [Example 236, 4-[2-[N-methyl-N-(4-isopropoxyphenyl)amino]ethyl]-1-(4-trifluoromethoxyphenylmethyl)piperidin-4-ol dihydrochloride] the IC50 [2] was 300 nM.

In the case of `CC(C)Oc1ccc(N(C)CCC2(O)CCN(Cc3ccc(Br)cc3F)CC2)cc1` [Example 240, 1-(4-bromo-2-fluorophenylmethyl)-4-[2-[N-methyl-N-(4-isopropoxyphenyl)amino]ethyl]piperidin-4-ol dihydrochloride], the IC50 [2] is reported as 700 nM, the “Incidence (%) of the ventricular fibrillation” value [3] is reported as 0.0% and the “PQ Distance (rate of change)” value [1] is reported as “— (The rate of change at two minutes after administration is 15% or less as compared with that before administration.)”. The “QRS Width (rate of change)” value [1] was “— (The rate of change at two minutes after administration is 15% or less as compared with that before administration.)”.

With `CC(C)Oc1ccc(N(C)CCC2(O)CCN(Cc3cccs3)CC2)cc1` [Example 254, 4-[2-[N-methyl-N-(4-isopropoxyphenyl)amino]ethyl]-1(2-thienylmethyl)piperidin-4-ol dihydrochloride] the “PQ Distance (rate of change)” value [1] was “— (The rate of change at two minutes after administration is 15% or less as compared with that before administration.)” and the “QRS Width (rate of change)” value [1] was “— (The rate of change at two minutes after administration is 15% or less as compared with that before administration.)”.
